According to patent US7786164B2, “Lipophilic di(anticancer drug) compounds, compositions, and related methods” (Sonus Pharmaceuticals, Inc., priority 2005, dated 2010):
Where two headings read alike, the source gives them in different places.

What was measured:
Assay type in all cases: cell-based
[1] = system: NCI-H460 (non-small cell lung) cancer cell line; assay: In vitro cytotoxicity (GI50), Sulforhodamine B staining, NCI-H460; settings: Homo sapiens, read-out: Drug concentration that produces 50% cell growth inhibition (GI50), H460 (NSCLC)
Procedure: (§1) In this example, the in vitro cytotoxicity, as measured by GI50 (50% of growth inhibition) values, was determined for representative lipophilic di(anticancer drug) compounds of the invention. The GI50 values of sebacate bis(7-ethylcamptothecin-10-yl)ester, sebacate bis(camptothecin-20-yl)ester, sebacate bis(paclitaxel-2′-yl)ester, and sebacate bis(docetaxel-2′-yl)ester, were measured in the following cancer cell lines: NCI-H460 (non-small cell lung), MDA-MB-231 (breast), […] (colon), and SKOV-3 (ovarian).
(§2) The study was performed using a solution of the lipophilic di(anticancer drug) compounds in DMSO (1 mM) diluted in the corresponding cell media. The cells were in contact with varying concentrations of the drug for a period of 48 hours. At the end of 48 hours, staining with Sulforhodamine B was performed to determine the number of viable cells and calculate the degree of cellular growth inhibition as compared to a control group.

[2] = system: HCT-116 (colon) cancer cell line; assay: In vitro cytotoxicity (GI50), Sulforhodamine B staining, HCT-116; settings: Homo sapiens, read-out: Drug concentration that produces 50% cell growth inhibition (GI50), HCT-116 (COLON)
Procedure: as §1, §2

[3] = system: SKOV-3 (ovarian) cancer cell line; assay: In vitro cytotoxicity (GI50), Sulforhodamine B staining, SKOV-3; settings: Homo sapiens, read-out: Drug concentration that produces 50% cell growth inhibition (GI50), SKOV-3 (OVARIAN)
Procedure: as §1, §2

[4] = system: MDA-MB-231 (breast) cancer cell line; assay: In vitro cytotoxicity (GI50), Sulforhodamine B staining, MDA-MB-231; settings: Homo sapiens, read-out: Drug concentration that produces 50% cell growth inhibition (GI50), MDA-MB-231 (BREAST)
Procedure: as §1, §2

[5] = NCI-H460, H460 (NSCLC) cells, 48 hours contact, Sulforhodamine B
[6] = HCT-116 (colon) cells, 48 hours contact, Sulforhodamine B
[7] = SK-OV-3, SKOV-3 (ovarian) cells, 48 hours contact, Sulforhodamine B
[8] = MDA-MB-231 (breast) cells, 48 hours contact, Sulforhodamine B

| SMILES | GI50 ([1]; NCI-H460, 48 h) | GI50 ([2]; HCT-116, 48 h) | GI50 ([3]; SK-OV-3, 48 h) | GI50 ([4]; MDA-MB-231, 48 h) | GI50 [1, 5] | GI50 [2, 6] | GI50 [3, 7] | GI50 [4, 8] |
| --- | --- | --- | --- | --- | --- | --- | --- | --- |
| CCc1c2c(nc3ccc(OC(=O)CCCCCCCCC(=O)Oc4ccc5nc6c(c(CC)c5c4)Cn4c-6cc5c(c4=O)COC(=O)[C@]5(O)CC)cc13)-c1cc3c(c(=O)n1C2)COC(=O)[C@]3(O)CC [sebacate bis(7-ethylcamptothecin-10-yl), decanedioic acid bis[(4S)-4,11-diethyl-3,4,12,14-tetrahydro-4-hydroxy-3,14-dioxo-1H-pyrano[3′,4′:6,7]indolizino[1,2-b]quinolin-9-yl]ester] | 3.03 nM | 4.58 nM | 8.53 nM | 303 nM |  |  |  |  |
| CC[C@@]1(OC(=O)CCCCCCCCC(=O)O[C@]2(CC)C(=O)OCc3c2cc2n(c3=O)Cc3cc4ccccc4nc3-2)C(=O)OCc2c1cc1n(c2=O)Cc2cc3ccccc3nc2-1 [sebacate bis(camptothecin-20-yl)ester, decanedioic acid bis[(4S)-4-ethyl-3,4,12,14-tetrahydro-3,14-dioxo-1H-pyrano[3′,4′:6,7]indolizino[1,2-b]quinolin-4-yl]ester] |  |  |  |  | 3150 nM | 849 nM | 8540 nM | 9250 nM |
| CC(=O)O[C@@]12CO[C@@H]1C[C@H](O)[C@@]1(C)C(=O)[C@H](O)C3=C(C)[C@@H](OC(=O)[C@H](OC(=O)CCCCCCCCC(=O)O[C@@H](C(=O)O[C@H]4C[C@@]5(O)[C@@H](OC(=O)c6ccccc6)[C@@H]6[C@]7(OC(C)=O)CO[C@@H]7C[C@H](O)[C@@]6(C)C(=O)[C@H](O)C(=C4C)C5(C)C)[C@@H](NC(=O)OC(C)(C)C)c4ccccc4)[C@@H](NC(=O)OC(C)(C)C)c4ccccc4)C[C@@](O)([C@@H](OC(=O)c4ccccc4)[C@H]21)C3(C)C [sebacate bis(docetaxel-2′-yl)ester, decanedioic acid bis[(1R,2S)-1-[[[(2aR,4S,4aS,6R,9S,11S,12S,12aR,12bS)-12b-(acetyloxy)-12-(benzoyloxy)-2a,3,4,4a,5,6,9,10,11,12,12a,12b-dodecahydro-4,6,11-trihydroxy-4a,8,13,13-tetramethyl-5-oxo-7,11-methano-1H-cyclodeca[3,4]benz[1,2-b]oxet-9-yl]oxy]carbonyl]-2-[[(1,1-dimethylethoxy)carbonyl]amino]-2-phenylethyl]ester] |  |  |  |  | 16.7 nM | 20.9 nM | 135 nM | 111 nM |
| CC(=O)O[C@H]1C(=O)[C@@]2(C)[C@H]([C@H](OC(=O)c3ccccc3)[C@]3(O)C[C@H](OC(=O)[C@H](OC(=O)CCCCCCCCC(=O)O[C@@H](C(=O)O[C@H]4C[C@@]5(O)[C@@H](OC(=O)c6ccccc6)[C@@H]6[C@]7(OC(C)=O)CO[C@@H]7C[C@H](O)[C@@]6(C)C(=O)[C@H](OC(C)=O)C(=C4C)C5(C)C)[C@@H](NC(=O)c4ccccc4)c4ccccc4)[C@@H](NC(=O)c4ccccc4)c4ccccc4)C(C)=C1C3(C)C)[C@]1(OC(C)=O)CO[C@@H]1C[C@@H]2O [sebacate bis(paclitaxel-2′-yl)ester, decanedioic acid bis[(1R,2S)-2-(benzoylamino)-1-[[[(2aR,4S,4aS,6R,9S,11S,12S,12aR,12bS)-6,12b-bis(acetyloxy)-12-(benzoyloxy)-2a,3,4,4a,5,6,9,10,11,12,12a, 12b-dodecahydro-4,11-dihydroxy-4a,8,13,13-tetramethyl-5-oxo-7,11-methano-1H-cyclodeca[3,4]benz[1,2-b]oxet-9-yl]oxy]carbonyl]-2-phenylethyl]ester] | 83.2 nM | 39.9 nM | 40.2 nM | 84.3 nM |  |  |  |  |
